{"source": "patent US6203822A", "about": "“Gallium-containing compounds for the treatment of infections caused by intracellular pathogens and pathogens causing chronic pulmonary infection” (priority 1996, dated 2001)", "key": {"[1]": {"details": "infused in vivo; cited from earlier work"}, "[2]": {"system": "M. tuberculosis strain H37Ra in human macrophages", "test": "Growth inhibition of M. tuberculosis H37Ra in human monocyte derived macrophages (MDM)", "assay_type": "cell-based", "protocol": "Monocyte derived macrophages (MDM) containing strain H37Ra were incubated for 24 h (FIG. 2A), 48 h (FIG. 2B) or 72 h (FIG. 2C) and macrophages containing the virulent strain Erdman were incubated for 24 h (FIG. 2D) or 48 h (FIG. 2E) in gallium nitrate.\nThe gallium-containing compounds can also be tested for their ability to inhibit intracellular pathogens in tissue culture assays. In general, in these assays, the macrophages are placed in culture and incubated with the intracellular pathogen at an approximate cell to pathogen ratio of preferably at least 1:1 to about 1:5 cells:pathogen. Exemplary culture conditions are provided in the assays detailed in the Examples. For assays assessing M. tuberculosis infection, freshly adherent monocytes, 12 day-old adherent MDMs, or freshly adherent alveolar macrophages are incubated with M. tuberculosis, MAI or other intracellular bacteria at a ratio of about 1:1 to about 1:5 (phagocyte:bacterium). For M. tuberculosis or MAI, the bacteria are incubated with the phagocyte for 2 hr at 37° C. in RPMI/HEPES media with 2.5% serum or human serum albumin (serum-free). The cells are washed to remove non-adherent bacteria and monolayers are replated with RPMI containing 1% autologous serum (to maintain phagocyte viability but not to sustain extracellular growth of bacteria). Gallium-containing compounds, such as gallium nitrate, with, or without, other agents such as antibiotics, cytokines etc., are added about 24 hr. later and mycobacterial growth in cell lysates is then assessed over the next several days either by the radiometric BACTEC system or by colony-forming units on agarose plates. In each experiment, growth is assessed relative to control monolayers where no drug has been added.\nMononuclear phagocytes from healthy adult volunteers who were tuberculin skin test negative and had no history of mycobacterial infection were isolated and cultured in Teflon wells according to the methods of Schlesinger, et al. (J. Immunol. 150:2920-2930, 1993). […]"}, "[3]": {"system": "M. tuberculosis strain H37Ra", "test": "Radiometric BACTEC growth index assay of M. tuberculosis in broth culture, gallium nitrate", "assay_type": "cell-based", "details": "BACTEC 12B", "protocol": "FIG. 1 provides histograms that illustrate the inhibitory effect of gallium nitrate on M. tuberculosis in broth culture. […] FIG. 1B illustrates the results of experiments to inhibit M. tuberculosis strain H37Ra in broth culture over the range of 0 to 1040 μM concentrations gallium nitrate.\nExample 1 details methods for performing the growth index assays of this invention to detect the growth of pathogenic organisms including M. tuberculosis in suspension culture. There are a number of suspension culture methods known in the art. As an example of a suspension assay, M. tuberculosis growth and gallium nitrate inhibition were quantitated using the radiometric BACTEC 460TB system (Becton Dickinson Diagnostic Instrument Systems, Sparks, Md.). […] While this and other examples are directed to the inhibition of Mycobacteria, those skilled in the art will recognize that the assays are readily adaptable to the quantitation of other intracellular bacterial pathogens capable of infecting phagocytic cells. Growth inhibition of parasites or fungi can also be readily assessed by introducing the gallium-containing compounds into cultures of the organisms under standard growth conditions.\nLyophilized M. tuberculosis Erdman strain (ATCC #35801) and H37Ra (ATCC #25177) were reconstituted in pyogen-free water (Sigma, St. Louis, Mo.), plated on 7H11 agar plates, incubated at 37° C. in 5% CO2, 95% air, and after 14 days of culture, harvested and frozen in 7H9 broth at -70° C. […] An aliquot of this suspension was diluted in formalin, counted and diluted to appropriate concentrations for use in experiments. […] The figures illustrate the recorded numbers from bottles on different days which correlate with growth index readings for the various concentrations of gallium nitrate at Day 6.\nThe BACTEC system (Becton Dickinson, Sparks, Md.) is an instrument to quantitate bacterial growth. […] During quantitation in the BACTEC instrument, the gas is aspirated from the vial and the ^14 CO2 radioactivity is determined on a scale from 0 to 999. […]"}}}
{"smiles": "O=[N+]([O-])[O-].O=[N+]([O-])[O-].O=[N+]([O-])[O-].[Ga+3]", "note": "[gallium nitrate]", "values": [{"measurement": "binding to serum transferrin on infusion", "setting": "[1]", "value": "most of the gallium binds rapidly to serum transferrin"}, {"measurement": "inhibition of growth versus 24 h", "setting": "[2]; 48 and 72 h", "value": "More marked inhibition of growth"}, {"measurement": "inhibition of growth", "setting": "[2]; 24 h", "value": "Inhibition of growth was observed"}, {"measurement": "inhibition of growth", "setting": "[2]; about 1 to about 1000 μM", "value": "dose-dependent inhibition of growth"}, {"measurement": "inhibition of growth", "setting": "[3]", "value": "markedly inhibits the growth of M. tuberculosis"}, {"measurement": "concentration with marked inhibition of growth", "setting": "[3]; radiometric", "value": "approximately 100 μM"}, {"measurement": "concentration with statistically significant inhibition of growth", "setting": "[3]; radiometric", "value": 16.25, "unit": "µM"}]}
